According to patent US20250177291A1, “HYPOTONIC GEL-FORMING FORMULATIONS WITH ENHANCED RHEOLOGICAL PROPERTIES” (The Johns Hopkins University, priority 2021, published 2025):

Assay: Rheology: max tack force and adhesion of 16% F127 gels with additives
Assay type: physicochemical
Conditions: 0.2-1% glycerin added to 16% w/v F127, 37° C., vs no additive
Description: An Anton Paar cone and plate rheometer (model MCR 302) with PP25 probe were used to measure the max tack force and the adhesion. The probe was placed in contact with the sample, and then moved at a controlled rate vertically away from the sample to measure the normal force. The peak force on the curve is considered the max tack force, while the adhesion is the area under the force curve. Samples (200 μL) were transferred to the rheometer sample holder using a Drummond Wiretrol 200 μL wire plunger pipette. The samples were equilibrated between the probe and sample holder with a 1 mm gap for 60 s at the specified temperature. A total of 100 points were measured at 60 s intervals with ramp linear mode (initial was set as −0.005 mm/s and the final was set as −0.5 mm/s). If not specified, n=3-6 per each sample group were measured and each sample were prepared individually. The final data was exported from the Antron Parr RheoCompass. The max tack force and the adhesion were calculated with GraphPad Prism 9. For the temperature ramp viscosity experiment, the loading gap was set to 0.3 mm. […] The raw data with temperature (° C.) and viscosity (mPa*s) measurements were exported from the Anton Parr RheoCompass software and analyzed/plotted with GraphPad Prism 9. […]

OCC(O)CO [glycerin]
adhesion of the F127 gels: no measurable effect
max tack force of the F127 gels: no measurable effect
